Data on three molecules can be found in patent publication US7612200B2, “Inhibitors of protein kinases” (Locus Pharmaceuticals, Inc., priority 2004, dated 2009).

Holding throughout (type): biochemical
One test has as its target LynA (Homo sapiens, UniProt P07948). Nature of the test: Kinase activity at ATP Km,app, LynA. The settings on record: 40 min, compound 2 μM. Here is the method: (§1) Lyn Kinase Activity: In a final reaction volume of 25 μl, Lyn (h) (5-10 mU) is incubated with 50 mM Tris pH 7.5, 0.1 mM EGTA, 0.1 mM Na3VO4, 0.1% β-mercaptoethanol, 0.1 mg/ml poly(Glue, Tyr) 4:1, 10 mM MgAcetate and [γ-^33P-ATP] (specific activity approx. 500 cpm/pmol, concentration as required). The reaction is initiated by the addition of the MgATP mix. After incubation for 40 minutes at room temperature, the reaction is stopped by the addition of 5 μl of a 3% phosphoric acid solution. 10 μl of the reaction is then spotted onto a Filtermat A and washed three times for 5 minutes in 75 mM phosphoric acid and once in methanol prior to drying and scintillation counting.

Another test deals with EGFR (Homo sapiens, UniProt P00533). Nature of the test: Kinase activity at ATP Km,app, EGFR. The note with it: compound 2 μM.
The target in the next test is ERK2 (Homo sapiens, UniProt P28482). Briefly: Kinase activity at ATP Km,app, ERK2. The note with it: compound 2 μM.
The next test deals with T1, EphB4 (Homo sapiens, UniProt P54760).
T1 sequence (P54760 16-987): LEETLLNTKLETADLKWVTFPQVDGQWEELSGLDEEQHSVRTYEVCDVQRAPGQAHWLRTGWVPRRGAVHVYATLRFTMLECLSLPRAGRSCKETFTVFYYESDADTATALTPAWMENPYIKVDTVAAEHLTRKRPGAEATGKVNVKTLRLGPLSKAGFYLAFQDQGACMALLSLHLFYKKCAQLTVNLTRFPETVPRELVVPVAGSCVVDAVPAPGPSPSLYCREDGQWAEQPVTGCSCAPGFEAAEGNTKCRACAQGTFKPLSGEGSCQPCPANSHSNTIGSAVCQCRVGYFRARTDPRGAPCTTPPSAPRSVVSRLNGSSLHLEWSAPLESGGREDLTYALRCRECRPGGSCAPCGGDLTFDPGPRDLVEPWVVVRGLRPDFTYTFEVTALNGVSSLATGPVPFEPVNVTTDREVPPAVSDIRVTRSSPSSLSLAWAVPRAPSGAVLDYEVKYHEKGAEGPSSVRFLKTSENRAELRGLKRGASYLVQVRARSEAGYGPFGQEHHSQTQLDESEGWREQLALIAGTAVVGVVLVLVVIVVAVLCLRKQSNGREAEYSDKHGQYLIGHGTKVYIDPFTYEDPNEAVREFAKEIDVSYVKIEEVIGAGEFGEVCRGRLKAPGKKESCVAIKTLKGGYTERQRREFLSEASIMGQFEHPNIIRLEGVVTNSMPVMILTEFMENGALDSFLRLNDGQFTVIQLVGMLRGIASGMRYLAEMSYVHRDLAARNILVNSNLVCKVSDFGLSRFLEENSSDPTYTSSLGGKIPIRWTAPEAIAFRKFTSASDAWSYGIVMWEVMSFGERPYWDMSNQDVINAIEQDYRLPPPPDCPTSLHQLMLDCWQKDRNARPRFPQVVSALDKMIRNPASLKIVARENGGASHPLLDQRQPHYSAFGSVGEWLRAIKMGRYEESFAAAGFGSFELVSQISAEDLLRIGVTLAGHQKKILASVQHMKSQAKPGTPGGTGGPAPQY
Nature of the test: Kinase activity at ATP Km,app, EphB4. The settings on record: 40 min, compound 2 μM. Here is the method: EphB4 Kinase Activity: In a final reaction volume of 25 μl, EphB4 (h) (5-10 mU) is incubated with 8 mM MOPS pH 7.0, 0.2 mM EDTA, 10 mM MnCl2, 0.1 mg/ml poly(Glue, Tyr) 4:1, 10 mM MgAcetate and [γ-^33P-ATP] (specific activity approx. 500 cpm/pmol, concentration as required). The reaction is initiated by the addition of the MgATP mix. After incubatin for 40 minutes at room temperature, the reaction is stopped by the addition of 5 μl of a 3% phosphoric acid solution. 10 μl of the reaction is then spotted onto a Filtermat A and washed three times for 5 minutes in 75 mM phosphoric acid and once in methanol prior to drying and scintillating counting.

The next test addresses IGF1R (Homo sapiens, UniProt P08069). Nature of the test: Kinase activity at ATP Km,app, IGF1R. The settings on record: 40 min, compound 2 μM. The procedure: as §1, with “IGF-1R” for “Lyn”, “Activity” for “Activity:”, “250 μM KKKSPEGYVNIEFG, 10 mM MnCl2,” for “0.1 mg/ml poly(Glue, Tyr) 4:1,”, “P30 filtermat” for “Filtermat A”
Another test concerns the target T2, IRAK4 (Homo sapiens, UniProt Q9NWZ3).
T2 sequence (Q9NWZ3 1-460): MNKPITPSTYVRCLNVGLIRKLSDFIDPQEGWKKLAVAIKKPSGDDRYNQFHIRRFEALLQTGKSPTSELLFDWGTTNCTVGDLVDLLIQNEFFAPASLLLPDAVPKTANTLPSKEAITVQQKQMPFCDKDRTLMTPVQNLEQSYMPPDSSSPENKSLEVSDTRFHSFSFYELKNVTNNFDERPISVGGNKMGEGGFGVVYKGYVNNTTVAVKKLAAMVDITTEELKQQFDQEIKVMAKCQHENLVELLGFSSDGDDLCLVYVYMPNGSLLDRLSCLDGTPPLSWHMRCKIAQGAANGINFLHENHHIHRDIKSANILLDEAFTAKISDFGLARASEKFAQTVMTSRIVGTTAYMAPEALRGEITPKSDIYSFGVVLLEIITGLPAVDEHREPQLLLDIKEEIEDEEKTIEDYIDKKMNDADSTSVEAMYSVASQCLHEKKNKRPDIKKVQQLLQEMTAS
Briefly: Kinase activity at ATP Km,app, IRAK4. The settings on record: compound 2 μM.

Sequence of IGF1R (P08069 31-1367): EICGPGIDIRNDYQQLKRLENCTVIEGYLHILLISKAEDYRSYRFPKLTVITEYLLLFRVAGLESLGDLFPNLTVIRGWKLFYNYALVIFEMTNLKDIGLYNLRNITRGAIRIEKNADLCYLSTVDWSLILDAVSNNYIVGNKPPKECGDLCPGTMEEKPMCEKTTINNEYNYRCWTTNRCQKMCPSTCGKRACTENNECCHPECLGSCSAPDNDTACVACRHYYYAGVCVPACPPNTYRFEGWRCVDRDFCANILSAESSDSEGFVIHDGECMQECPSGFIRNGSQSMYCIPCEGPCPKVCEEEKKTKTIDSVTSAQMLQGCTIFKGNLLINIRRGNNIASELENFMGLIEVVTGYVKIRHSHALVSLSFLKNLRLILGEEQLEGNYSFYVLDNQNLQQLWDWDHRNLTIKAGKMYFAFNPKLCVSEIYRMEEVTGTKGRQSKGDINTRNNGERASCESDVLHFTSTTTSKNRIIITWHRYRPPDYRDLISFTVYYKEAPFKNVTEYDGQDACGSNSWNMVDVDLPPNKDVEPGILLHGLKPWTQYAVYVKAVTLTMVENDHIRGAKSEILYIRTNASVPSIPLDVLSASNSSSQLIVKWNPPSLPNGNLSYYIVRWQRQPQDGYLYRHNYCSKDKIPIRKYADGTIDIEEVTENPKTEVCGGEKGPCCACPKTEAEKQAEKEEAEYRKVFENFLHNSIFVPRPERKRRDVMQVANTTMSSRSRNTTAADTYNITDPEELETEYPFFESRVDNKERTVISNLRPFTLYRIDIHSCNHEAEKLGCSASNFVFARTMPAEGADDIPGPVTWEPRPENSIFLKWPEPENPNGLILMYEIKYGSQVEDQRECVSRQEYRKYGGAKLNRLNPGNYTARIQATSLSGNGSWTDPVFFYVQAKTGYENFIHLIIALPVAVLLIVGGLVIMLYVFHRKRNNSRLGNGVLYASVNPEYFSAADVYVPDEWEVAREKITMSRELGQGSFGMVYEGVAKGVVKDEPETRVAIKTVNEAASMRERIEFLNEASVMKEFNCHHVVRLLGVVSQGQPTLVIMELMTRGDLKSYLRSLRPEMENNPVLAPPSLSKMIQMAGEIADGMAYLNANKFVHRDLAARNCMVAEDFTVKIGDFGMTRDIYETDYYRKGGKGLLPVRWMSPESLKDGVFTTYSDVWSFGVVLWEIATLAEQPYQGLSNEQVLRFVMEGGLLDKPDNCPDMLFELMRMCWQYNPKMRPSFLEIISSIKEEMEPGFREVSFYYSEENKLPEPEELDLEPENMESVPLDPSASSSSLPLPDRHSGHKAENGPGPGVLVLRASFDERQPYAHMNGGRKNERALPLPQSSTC
Sequence of LynA (P07948 whole entry): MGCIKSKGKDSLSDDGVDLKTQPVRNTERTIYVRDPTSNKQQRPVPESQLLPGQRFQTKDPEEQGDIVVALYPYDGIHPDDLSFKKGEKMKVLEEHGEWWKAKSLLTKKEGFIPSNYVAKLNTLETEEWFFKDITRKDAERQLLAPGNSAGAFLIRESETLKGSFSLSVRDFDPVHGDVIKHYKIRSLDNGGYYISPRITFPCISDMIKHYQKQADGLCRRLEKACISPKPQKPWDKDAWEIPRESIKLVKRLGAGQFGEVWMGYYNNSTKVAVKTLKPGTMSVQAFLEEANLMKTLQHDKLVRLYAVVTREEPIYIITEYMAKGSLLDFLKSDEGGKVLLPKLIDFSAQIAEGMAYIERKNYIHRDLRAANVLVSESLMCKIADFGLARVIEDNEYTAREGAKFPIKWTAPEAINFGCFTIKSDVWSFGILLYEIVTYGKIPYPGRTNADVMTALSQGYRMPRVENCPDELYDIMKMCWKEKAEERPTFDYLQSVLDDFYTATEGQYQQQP
Sequence of EGFR (P00533 25-1210, species assumed): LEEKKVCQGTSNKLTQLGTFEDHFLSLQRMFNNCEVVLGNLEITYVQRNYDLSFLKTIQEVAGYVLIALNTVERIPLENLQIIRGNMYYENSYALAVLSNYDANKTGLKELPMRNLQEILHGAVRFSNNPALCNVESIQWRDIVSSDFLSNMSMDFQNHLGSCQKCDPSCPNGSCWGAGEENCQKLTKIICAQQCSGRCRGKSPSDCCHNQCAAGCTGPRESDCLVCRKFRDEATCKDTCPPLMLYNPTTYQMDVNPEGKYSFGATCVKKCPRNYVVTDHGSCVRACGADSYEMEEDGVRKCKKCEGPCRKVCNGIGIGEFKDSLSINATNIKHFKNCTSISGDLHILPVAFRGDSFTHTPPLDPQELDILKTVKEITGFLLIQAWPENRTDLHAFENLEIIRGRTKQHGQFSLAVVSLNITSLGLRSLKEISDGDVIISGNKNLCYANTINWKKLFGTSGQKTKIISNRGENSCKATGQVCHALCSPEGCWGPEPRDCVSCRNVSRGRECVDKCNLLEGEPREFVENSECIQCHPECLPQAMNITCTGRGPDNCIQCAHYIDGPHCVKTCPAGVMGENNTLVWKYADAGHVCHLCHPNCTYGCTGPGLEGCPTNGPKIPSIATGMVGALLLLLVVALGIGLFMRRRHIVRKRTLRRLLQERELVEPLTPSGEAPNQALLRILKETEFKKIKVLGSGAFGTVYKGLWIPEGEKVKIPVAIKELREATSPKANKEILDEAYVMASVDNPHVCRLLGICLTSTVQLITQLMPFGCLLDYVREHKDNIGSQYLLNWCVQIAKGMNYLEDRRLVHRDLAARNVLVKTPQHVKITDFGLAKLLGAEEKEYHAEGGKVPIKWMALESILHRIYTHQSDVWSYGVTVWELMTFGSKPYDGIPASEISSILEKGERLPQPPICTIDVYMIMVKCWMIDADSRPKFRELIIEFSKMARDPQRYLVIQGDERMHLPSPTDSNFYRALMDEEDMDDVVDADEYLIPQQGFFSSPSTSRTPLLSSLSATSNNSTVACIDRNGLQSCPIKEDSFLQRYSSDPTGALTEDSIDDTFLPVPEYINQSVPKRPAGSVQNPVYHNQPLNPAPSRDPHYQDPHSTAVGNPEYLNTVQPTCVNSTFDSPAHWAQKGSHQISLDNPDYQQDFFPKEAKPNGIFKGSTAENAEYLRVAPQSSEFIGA
Sequence of ERK2 (P28482 whole entry, species assumed): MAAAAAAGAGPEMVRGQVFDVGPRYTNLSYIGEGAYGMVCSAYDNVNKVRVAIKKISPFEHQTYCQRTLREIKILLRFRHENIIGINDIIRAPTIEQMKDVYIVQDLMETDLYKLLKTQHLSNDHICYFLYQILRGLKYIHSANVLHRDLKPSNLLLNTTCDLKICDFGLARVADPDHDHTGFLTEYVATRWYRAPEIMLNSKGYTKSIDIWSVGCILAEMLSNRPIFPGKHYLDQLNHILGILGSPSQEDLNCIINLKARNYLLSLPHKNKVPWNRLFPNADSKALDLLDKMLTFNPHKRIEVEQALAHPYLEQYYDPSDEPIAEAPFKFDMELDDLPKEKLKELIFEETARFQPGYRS

`CC(C)(C)c1cc(C(=O)N2CCNC(=O)C2)c(NC(=O)Nc2ccc(Oc3ccncc3)cc2)s1` [Example 2, 1-(5-tert-Butyl-3-(3-oxo-piperazine-1-carbonyl)thiophen-2-yl)-3-(4-(pyridin-4-yloxy)phenyl)urea]: the inhibition at 2 µM against LynA fell in the range of 26 to 50%; against ERK2, 0 to 25%; against EphB4 it was 76 to 100%; against IGF1R, 0 to 25%. For the same molecule, the “% Inhibition at ATP Km,app” value at EGFR and on IRAK4 was 0-25% throughout.
For the molecule `CC(C)(C)c1cc(C(=O)N2CCNS(=O)(=O)CC2)c(NC(=O)Nc2ccc(Oc3ccncc3)cc2)s1` [Example 1, 1-(5-tert-Butyl-3-(1,1-dioxo-1λ^6-[1,2,5]thiadiazepane-5-carbonyl)thiophen-2-yl)-3-(4-(pyridin-4-yloxy)phenyl)urea], the inhibition at 2 µM on LynA lay in the range of 26 to 50%; on ERK2, 0 to 25%; at EphB4, 76 to 100%; against IGF1R, 0 to 25%. For the same molecule, the “% Inhibition at ATP Km,app” value at EGFR and at IRAK4 was 0-25% each time.
Take `CC(C)(C)c1cc(C(=O)N2CCNC(=O)CC2)c(NC(=O)Nc2ccc(Oc3ccncc3)cc2)s1` [Example 4, 1-(5-tert-Butyl-3-(5-oxo-[1,4]diazepane-1-carbonyl)thiophen-2-yl)-3-(4-(pyridin-4-yloxy)phenyl)urea]: the inhibition at 2 µM on LynA was 51 to 76%; at ERK2, 0 to 25%; against EphB4 it was 76 to 100%; against IGF1R it was 0 to 25%. For the same molecule, the “% Inhibition at ATP Km,app” value on EGFR and at IRAK4 was 0-25% throughout.

By inhibition is commonly meant the share of the control response that was lost under treatment. Read a low inhibition as little suppression.
